{"source": "patent US9302988B2", "about": "“Fluoromethyl-substituted pyrrole carboxamides” (GRÜNENTHAL GMBH, priority 2012, dated 2016)"}
{"biological_target": "T1, Human CaV2.2 channels (Homo sapiens, UniProt Q00975)", "T1 construct": "expressed in transfected cells", "T1 sequence (Q00975 whole entry)": "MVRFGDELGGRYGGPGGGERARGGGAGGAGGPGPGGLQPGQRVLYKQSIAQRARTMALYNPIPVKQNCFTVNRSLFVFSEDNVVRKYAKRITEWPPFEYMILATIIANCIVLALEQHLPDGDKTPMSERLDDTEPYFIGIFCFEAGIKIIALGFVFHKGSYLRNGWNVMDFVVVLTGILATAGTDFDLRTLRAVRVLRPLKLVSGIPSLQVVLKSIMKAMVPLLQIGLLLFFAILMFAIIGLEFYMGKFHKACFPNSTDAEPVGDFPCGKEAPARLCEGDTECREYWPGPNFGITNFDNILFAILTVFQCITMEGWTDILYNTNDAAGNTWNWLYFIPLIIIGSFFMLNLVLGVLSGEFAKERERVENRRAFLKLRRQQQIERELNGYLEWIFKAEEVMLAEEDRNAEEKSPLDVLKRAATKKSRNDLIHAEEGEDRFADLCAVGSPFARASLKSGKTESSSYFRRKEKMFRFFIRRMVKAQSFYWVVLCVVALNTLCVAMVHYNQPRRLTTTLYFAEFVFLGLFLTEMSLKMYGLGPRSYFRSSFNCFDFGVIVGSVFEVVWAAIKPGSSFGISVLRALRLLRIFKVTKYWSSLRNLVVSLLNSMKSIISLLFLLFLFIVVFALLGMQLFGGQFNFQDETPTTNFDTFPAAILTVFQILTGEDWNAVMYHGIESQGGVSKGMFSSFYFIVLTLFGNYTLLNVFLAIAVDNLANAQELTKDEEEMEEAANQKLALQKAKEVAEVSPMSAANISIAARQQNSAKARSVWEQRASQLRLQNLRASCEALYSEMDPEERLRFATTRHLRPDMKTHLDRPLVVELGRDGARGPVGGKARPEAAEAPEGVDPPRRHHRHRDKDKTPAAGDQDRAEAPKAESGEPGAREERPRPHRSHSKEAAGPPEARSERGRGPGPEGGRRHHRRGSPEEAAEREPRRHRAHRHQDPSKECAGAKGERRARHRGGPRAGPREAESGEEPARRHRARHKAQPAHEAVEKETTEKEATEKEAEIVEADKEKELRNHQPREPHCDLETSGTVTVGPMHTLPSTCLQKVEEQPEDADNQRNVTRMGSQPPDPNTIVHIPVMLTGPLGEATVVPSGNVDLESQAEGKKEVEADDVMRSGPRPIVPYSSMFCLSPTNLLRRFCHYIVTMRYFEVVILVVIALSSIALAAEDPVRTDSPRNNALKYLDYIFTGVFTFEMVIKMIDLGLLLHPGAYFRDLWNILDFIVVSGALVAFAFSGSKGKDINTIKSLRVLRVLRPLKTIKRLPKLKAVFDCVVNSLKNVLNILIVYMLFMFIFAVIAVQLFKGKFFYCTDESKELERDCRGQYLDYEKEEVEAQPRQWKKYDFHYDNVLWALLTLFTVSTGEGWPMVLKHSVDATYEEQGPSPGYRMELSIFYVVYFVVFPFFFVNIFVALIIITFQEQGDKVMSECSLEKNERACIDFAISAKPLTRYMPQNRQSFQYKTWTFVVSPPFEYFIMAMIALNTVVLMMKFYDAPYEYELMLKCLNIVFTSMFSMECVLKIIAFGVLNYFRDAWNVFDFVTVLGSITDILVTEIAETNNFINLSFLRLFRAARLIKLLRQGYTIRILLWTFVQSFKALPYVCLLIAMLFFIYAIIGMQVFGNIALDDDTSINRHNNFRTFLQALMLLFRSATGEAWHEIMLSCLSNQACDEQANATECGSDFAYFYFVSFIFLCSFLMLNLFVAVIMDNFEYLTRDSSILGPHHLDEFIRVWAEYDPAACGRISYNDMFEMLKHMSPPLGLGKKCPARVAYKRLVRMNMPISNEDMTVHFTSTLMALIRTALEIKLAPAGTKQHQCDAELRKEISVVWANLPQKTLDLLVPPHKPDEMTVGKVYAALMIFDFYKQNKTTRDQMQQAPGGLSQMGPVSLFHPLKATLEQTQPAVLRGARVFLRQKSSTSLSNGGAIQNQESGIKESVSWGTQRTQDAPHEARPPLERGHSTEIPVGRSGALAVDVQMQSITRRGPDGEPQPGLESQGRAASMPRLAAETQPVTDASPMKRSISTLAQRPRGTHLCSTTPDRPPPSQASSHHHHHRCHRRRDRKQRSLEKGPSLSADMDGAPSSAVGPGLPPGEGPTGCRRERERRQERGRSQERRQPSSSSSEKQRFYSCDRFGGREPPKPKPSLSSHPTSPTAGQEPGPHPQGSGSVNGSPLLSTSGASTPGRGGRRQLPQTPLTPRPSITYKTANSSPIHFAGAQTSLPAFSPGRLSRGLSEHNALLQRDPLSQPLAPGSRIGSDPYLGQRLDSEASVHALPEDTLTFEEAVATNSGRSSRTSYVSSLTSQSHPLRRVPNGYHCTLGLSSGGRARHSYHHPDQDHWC", "T1 sequence (P54289 25-1103, further chain)": "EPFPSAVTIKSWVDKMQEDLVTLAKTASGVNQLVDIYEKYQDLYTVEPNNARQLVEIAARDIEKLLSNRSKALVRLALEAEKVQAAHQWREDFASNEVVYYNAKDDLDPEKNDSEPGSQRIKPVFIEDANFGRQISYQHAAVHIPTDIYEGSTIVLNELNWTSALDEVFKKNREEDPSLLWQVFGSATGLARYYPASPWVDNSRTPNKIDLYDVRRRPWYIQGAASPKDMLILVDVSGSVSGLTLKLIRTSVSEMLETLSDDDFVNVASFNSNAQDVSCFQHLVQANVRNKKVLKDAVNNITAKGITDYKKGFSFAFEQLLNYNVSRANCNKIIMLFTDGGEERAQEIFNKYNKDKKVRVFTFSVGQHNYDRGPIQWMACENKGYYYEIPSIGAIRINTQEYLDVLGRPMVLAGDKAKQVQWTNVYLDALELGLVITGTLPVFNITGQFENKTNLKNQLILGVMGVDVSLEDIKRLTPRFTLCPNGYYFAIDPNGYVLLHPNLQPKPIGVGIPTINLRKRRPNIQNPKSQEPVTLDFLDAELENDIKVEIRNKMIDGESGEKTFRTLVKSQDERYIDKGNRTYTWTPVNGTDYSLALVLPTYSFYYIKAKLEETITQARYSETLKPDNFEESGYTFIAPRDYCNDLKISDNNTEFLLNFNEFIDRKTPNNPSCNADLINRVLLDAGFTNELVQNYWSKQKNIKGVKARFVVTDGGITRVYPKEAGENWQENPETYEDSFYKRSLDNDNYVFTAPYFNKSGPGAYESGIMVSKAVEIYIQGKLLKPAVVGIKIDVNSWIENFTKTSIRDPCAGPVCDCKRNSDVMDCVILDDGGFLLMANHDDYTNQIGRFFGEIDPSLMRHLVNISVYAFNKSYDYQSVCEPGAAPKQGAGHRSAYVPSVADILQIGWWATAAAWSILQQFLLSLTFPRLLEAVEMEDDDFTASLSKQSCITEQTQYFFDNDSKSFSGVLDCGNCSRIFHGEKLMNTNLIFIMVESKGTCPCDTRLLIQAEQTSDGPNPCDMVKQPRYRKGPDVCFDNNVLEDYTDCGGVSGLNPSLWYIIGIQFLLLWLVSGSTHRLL", "T1 sequence (P54284 whole entry, further chain)": "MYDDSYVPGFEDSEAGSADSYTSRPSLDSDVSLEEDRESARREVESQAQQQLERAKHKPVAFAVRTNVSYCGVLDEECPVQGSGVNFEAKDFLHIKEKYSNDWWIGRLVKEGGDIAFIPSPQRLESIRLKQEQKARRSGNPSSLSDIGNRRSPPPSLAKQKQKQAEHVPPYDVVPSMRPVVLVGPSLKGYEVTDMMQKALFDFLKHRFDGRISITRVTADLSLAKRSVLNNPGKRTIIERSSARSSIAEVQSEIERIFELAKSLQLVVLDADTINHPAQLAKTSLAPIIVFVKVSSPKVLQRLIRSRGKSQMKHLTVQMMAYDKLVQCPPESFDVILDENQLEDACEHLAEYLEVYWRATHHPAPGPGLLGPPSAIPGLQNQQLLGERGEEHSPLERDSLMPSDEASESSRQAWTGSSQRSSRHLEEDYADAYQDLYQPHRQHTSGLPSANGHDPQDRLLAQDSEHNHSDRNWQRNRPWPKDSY", "test": "Fluorescent assay for CaV2.2 channels using potassium depolarization to induce channel opening (FLIPR, Fluo-4)", "format": "cell-based", "conditions": "3 μM test compound, 30 mM KCl, HEK293 cells stably expressing human CaV2.2; read-out: %-Inhib (CaV2.2) @3 μM @30 mM KCl", "description": "In the process, the Ca^2+ influx is quantified in the FLIPR assay with the aid of a Ca^2+-sensitive dye (type Fluo-4, Molecular Probes Europe BV, Leiden, the Netherlands) in a fluorescent imaging plate reader (FLIPR 3, Molecular Devices, Sunnyvale, USA), as described hereinafter.\n2.1 Fluorescent Assay for CaV2.2 Channels Using Potassium Depolarization to Induce Channel Opening\nHuman CaV2.2 channels were stably expressed in HEK293 cells together with alpha2-delta and beta subunits of voltage gated calcium channels. In addition, an inwardly rectifying potassium channel (Kir2.3) was stably expressed in these cells to augment control of the cell membrane potential by the concentration of extracellular potassium ions. Raise of the extracellular potassium concentration leads to depolarization of the membrane potential and thus regulates the voltage dependent state of CaV2.2 channels. For preparation, cells were seeded in black poly-D-lysine coated 96-well plates (Becton Dickinson, Biocoat 4640) in 100 μl medium [500 ml DMEM/F-12 plus Glutamax (Invitrogen 31331-093) plus 5.5 ml MEM NEAA 100× (Invitrogen 11140-035) plus 50 ml FBS decomplemented (Invitrogen 10270-106) plus 4.4 ml Geneticin (Invitrogen 10131-027) plus 1.1 ml Hygromycin B (Invitrogen 10687-010) plus 68.75 μl Puromycin (Clontech, 631306)] at a cell density of 45.000 cells per well.\nPlates were incubated at 37° C. (5% CO2) for 20 to 23 hours. On the day of experiment medium was discarded and cells were loaded with Fluo 4 by addition of 100 μl of basic assay buffer (10 mM HEPES, 30 mM KCl, 120 mM NaCl, 0.8 mM CaCl2, 1.7 mM MgCl2, 10 mM Glucose, 0.1% BSA. pH 7.4) containing 2 μM Fluo 4 (Molecular Probes; F-14201), 0.01% pluronic acid (Molecular Probes; P-6866) and 2.5 mM probenecid (Molecular Probes; P36400). Cells were incubated in the dark at 25° C. for 60 min. Then the dye containing buffer was discarded and 100 μl basic assay buffer was added. Subsequently cells were incubated in the dark at 25° C. for 15 min. 25 μl of basic assay buffer with or without test compound were added and cells were incubated again in the dark at 25° C. for 15 min. Fluorescence intensity was measured on a FLIPR 3 instrument (Molecular Devices Corp., Sunnyvale, Calif.) with excitation at 480 nm and emission at 535 nm. After continuously reading fluorescence for 30 sec, 50 μl of basic assay buffer containing 210 mM KCl (NaCl omitted) were added for depolarization. Peak fluorescent signal intensity was determined and the amplitude of the peak signal, normalized to base line, was used to measure channel inhibition by test compounds.", "units": {"inhibition at 3 µM": "%"}}
{"smiles": "Cc1c(-c2ccc(Cl)cc2)c(C(=O)N(C)C2CCS(=O)(=O)C2)n(Cc2ccccc2)c1C(F)(F)F", "note": "(stereo not shown) [SC-63, 1-Benzyl-3-(4-chlorophenyl)-N-(1,1-dioxo-thiolan-3-yl)-N,4-dimethyl-5-(trifluoromethyl)-1H-pyrrole-2-carboxylic acid amide]", "inhibition at 3 µM": "> 95"}
{"smiles": "Cc1c(-c2ccc(Cl)cc2F)c(C(=O)N(C)CCS(C)(=O)=O)n(Cc2ccccc2)c1C(F)(F)F", "note": "[SC-64, 1-Benzyl-3-(4-chloro-2-fluoro-phenyl)-N,4-dimethyl-N-(2-methylsulfonyl-ethyl)-5-(trifluoromethyl)-1H-pyrrole-2-carboxylic acid amide]", "inhibition at 3 µM": "> 95"}
{"smiles": "Cc1c(-c2ccc(Cl)cc2)c(C(=O)N(C)CC2(O)CC2)n(Cc2ccccc2)c1C(F)(F)F", "note": "[SC-65, 1-Benzyl-3-(4-chlorophenyl)-N-[(1-hydroxy-cyclopropyl)-methyl]-N,4-dimethyl-5-(trifluoromethyl)-1H-pyrrole-2-carboxylic acid amide]", "inhibition at 3 µM": "> 95"}
{"smiles": "O=C1CN(C(=O)c2c(-c3ccc(Cl)cc3)cc(C(F)(F)F)n2Cc2ccccc2)CCN1", "note": "[SC-66, 4-[1-Benzyl-3-(4-chlorophenyl)-5-(trifluoromethyl)-1H-pyrrole-2-carbonyl]-piperazin-2-one]", "inhibition at 3 µM": "75 to 95"}
{"smiles": "CN(CCS(C)(=O)=O)C(=O)c1c(-c2ccc(Cl)cc2)cc(C(F)(F)F)n1Cc1ccccc1", "note": "[SC-67, 1-Benzyl-3-(4-chlorophenyl)-N-methyl-N-(2-methylsulfonyl-ethyl)-5-(trifluoromethyl)-1H-pyrrole-2-carboxylic acid amide]", "inhibition at 3 µM": "> 95"}
{"smiles": "CN(CC(C)(C)O)C(=O)c1c(-c2ccc(Cl)cc2)cc(C(F)(F)F)n1Cc1ccccc1", "note": "[SC-68, 1-Benzyl-3-(4-chlorophenyl)-N-(2-hydroxy-2-methyl-propyl)-N-methyl-5-(trifluoromethyl)-1H-pyrrole-2-carboxylic acid amide]", "inhibition at 3 µM": "> 95"}
{"smiles": "CN(CCS(C)(=O)=O)C(=O)c1c(-c2ccc(Cl)cc2)cc(C(F)(F)F)n1Cc1cccc(Cl)c1", "note": "[SC-69, 3-(4-Chlorophenyl)-1-[(3-chlorophenyl)-methyl]-N-methyl-N-(2-methylsulfonyl-ethyl)-5-(trifluoromethyl)-1H-pyrrole-2-carboxylic acid amide]", "inhibition at 3 µM": "75 to 95"}
{"smiles": "CN(CC(C)(C)O)C(=O)c1c(-c2ccc(Cl)cc2)cc(C(F)(F)F)n1Cc1cccc(Cl)c1", "note": "[SC-70, 3-(4-Chlorophenyl)-1-[(3-chlorophenyl)-methyl]-N-(2-hydroxy-2-methyl-propyl)-N-methyl-5-(trifluoromethyl)-1H-pyrrole-2-carboxylic acid amide]", "inhibition at 3 µM": "> 95"}
{"smiles": "CN(CC(C)(C)C)C(=O)c1c(-c2ccc(Cl)cc2)cc(C(F)(F)F)n1Cc1cccc(Cl)c1", "note": "[SC-71, 3-(4-Chlorophenyl)-1-[(3-chlorophenyl)-methyl]-N-(2,2-dimethyl-propyl)-N-methyl-5-(trifluoromethyl)-1H-pyrrole-2-carboxylic acid amide]", "inhibition at 3 µM": "75 to 95"}
{"smiles": "O=C(c1c(-c2ccc(Cl)cc2)cc(C(F)(F)F)n1Cc1ccccc1)N1CC(O)C1", "note": "[SC-72, [1-Benzyl-3-(4-chlorophenyl)-5-(trifluoromethyl)-1H-pyrrol-2-yl]-(3-hydroxy-azetidin-1-yl)-methanone]", "inhibition at 3 µM": "75 to 95"}
{"smiles": "CN(C(=O)c1c(-c2ccc(Cl)cc2)cc(C(F)(F)F)n1Cc1ccccc1)C1CCOCC1", "note": "[SC-73, 1-Benzyl-3-(4-chlorophenyl)-N-methyl-N-tetrahydro-pyran-4-yl-5-(trifluoromethyl)-1H-pyrrole-2-carboxylic acid amide]", "inhibition at 3 µM": "> 95"}
{"smiles": "O=C(c1c(-c2ccc(Cl)cc2)cc(C(F)(F)F)n1Cc1cccc(Cl)c1)N1CCOCC1", "note": "[SC-74, [3-(4-Chlorophenyl)-1-[(3-chlorophenyl)-methyl]-5-(trifluoromethyl)-1H-pyrrol-2-yl]-morpholin-4-yl-methanone]", "inhibition at 3 µM": "> 95"}
{"smiles": "CC1(C)CN(C(=O)c2c(-c3ccc(Cl)cc3)cc(C(F)(F)F)n2Cc2ccccc2)CCO1", "note": "[SC-75, [1-Benzyl-3-(4-chlorophenyl)-5-(trifluoromethyl)-1H-pyrrol-2-yl]-(2,2-dimethyl-morpholin-4-yl)-methanone]", "inhibition at 3 µM": "75 to 95"}
